What was measured:
[1] = test system: HGC-27 human gastric carcinoma cell line; experiment: cells; conditions: Homo sapiens, HGC-27, 72 h
SW1990 tumors = experiment: Human pancreatic tumor xenografts (SW1990) in athymic nude mice, tumor volume % T/C; format: in vivo
Protocol: (§1) Female athymic nude mice (Harlan Laboratories Models, S.L. (Barcelona, Spain) were utilized for all experiments. Animals were housed in individually ventilated cages, up to ten per cage in a 12-hour light-dark cycle at 21-23° C. and 40-60% humidity. The mice were allowed free access to irradiated standard rodent diet and sterilized water. Animals were acclimated for at least 5 days prior to tumor implantation with a tumor cell suspension.
(§2) Each animal was subcutaneously implanted on the right flank, using 26G needle and a 1 cc syringe, with 5×10^6 SW1990 cells, from in vitro passage 12, in 0.05 mL suspension of 50% Matrigel and 50% serum free medium, without antibiotics.
(§3) PM01183 was provided in the form of vials of lyophilized PM01183 cake which was reconstituted with water for infusion to a concentration of 0.2 mg/mL. The PM01183 stock solution was further diluted in 5% glucose solution for injection to the dosing formulation concentrations.
Dose level groups were administered either as single agents or in combination.
(§4) Comparison of the median tumor volume in the treatment groups (T) to the median tumor volume in the control group (T/C×100%) was used for evaluation of the antitumor efficacy.

U87-MG tumors = experiment: Human brain tumor xenografts (U87-MG) in athymic nude mice, tumor volume % T/C; format: in vivo
Protocol: as §1
The tumor model used in these studies was U87-MG cell line, which was obtained from the American Type Culture Collection (ATCC HTB-14™).
as §2, with “U87-MG cells were grown at 37° C. with 5% CO2 in Minimum Essential Medium Eagle (MEME). Each” for “Each”, “U87-MG” for “SW1990”, “5,” for “12,”
as §3, with “concentrations. Temozolomide was provided as a solution prepared by diluting the product in DMSO 10% in 0.9% saline solution for injection to the target final concentration.” for “concentrations.”
In these experiments, PM01183 and temozolomide treatments, as well as placebo, were administered as follows: PM01183, intravenously once per week up to 3 consecutive weeks, on Days 0, 7 and 14, temozolomide orally, in a daily basis during 8 consecutive days (Days 0 to 7), and placebo was administered following the same schedule as those provided for PM01183 and temozolomide. Dose level groups were administered either as single agents or in combination.
as §4

[2] = PM01183 0.045 mg/kg iv days 0,7,14
[3] = PM01183 0.09 mg/kg iv days 0,7,14
[4] = PM01183 0.135 mg/kg iv days 0,7,14
[5] = PM01183 0.18 mg/kg iv days 0,7,14

COc1ccc2[nH]c3c(c2c1)CCN[C@]31CS[C@@H]2c3c(OC(C)=O)c(C)c4c(c3[C@H](COC1=O)N1[C@@H]2[C@H]2c3c(cc(C)c(OC)c3O)C[C@@H]([C@@H]1O)N2C)OCO4 [PM01183]
IC50 [1]: 850 pM | % T/C on day 0 (SW1990 tumors; [2]): 100.2% | % T/C on day 3 (SW1990 tumors; [2]): 83.6% | % T/C on day 6 (SW1990 tumors; [2]): 82.8% | % T/C on day 8 (SW1990 tumors; [2]): 93.3% | % T/C on day 10 (SW1990 tumors; [2]): 82.9% | % T/C on day 13 (SW1990 tumors; [2]): 88.1% | % T/C on day 15 (SW1990 tumors; [2]): 92.6% | % T/C on day 17 (SW1990 tumors; [2]): 86.5% | % T/C on day 20 (SW1990 tumors; [2]): 85.1% | % T/C on day 22 (SW1990 tumors; [2]): 84.5% | % T/C on day 24 (SW1990 tumors; [2]): 85.8% | % T/C on day 28 (SW1990 tumors; [2]): 85.4% | % T/C on day 0 (SW1990 tumors; [3]): 101.1% | % T/C on day 3 (SW1990 tumors; [3]): 81.5% | % T/C on day 6 (SW1990 tumors; [3]): 72.8% | % T/C on day 8 (SW1990 tumors; [3]): 68.7% | % T/C on day 10 (SW1990 tumors; [3]): 68.4% | % T/C on day 13 (SW1990 tumors; [3]): 74.4% | % T/C on day 15 (SW1990 tumors; [3]): 74.7% | % T/C on day 17 (SW1990 tumors; [3]): 80.7% | % T/C on day 20 (SW1990 tumors; [3]): 71.9% | % T/C on day 22 (SW1990 tumors; [3]): 75.4% | % T/C on day 24 (SW1990 tumors; [3]): 77.3% | % T/C on day 28 (SW1990 tumors; [3]): 63.9% | % T/C on day 0 (SW1990 tumors; [4]): 99.6% | % T/C on day 3 (SW1990 tumors; [4]): 81.3% | % T/C on day 6 (SW1990 tumors; [4]): 71.0% | % T/C on day 8 (SW1990 tumors; [4]): 73.1% | % T/C on day 10 (SW1990 tumors; [4]): 65.6% | % T/C on day 13 (SW1990 tumors; [4]): 63.1% | % T/C on day 15 (SW1990 tumors; [4]): 56.3% | % T/C on day 17 (SW1990 tumors; [4]): 56.7% | % T/C on day 20 (SW1990 tumors; [4]): 56.9% | % T/C on day 22 (SW1990 tumors; [4]): 56.5% | % T/C on day 24 (SW1990 tumors; [4]): 53.0% | % T/C on day 28 (SW1990 tumors; [4]): 51.7% | % T/C on day 0 (SW1990 tumors; [5]): 100.0% | % T/C on day 3 (SW1990 tumors; [5]): 74.3% | % T/C on day 6 (SW1990 tumors; [5]): 61.3% | % T/C on day 8 (SW1990 tumors; [5]): 59.4% | % T/C on day 10 (SW1990 tumors; [5]): 56.7% | % T/C on day 13 (SW1990 tumors; [5]): 56.1% | % T/C on day 15 (SW1990 tumors; [5]): 53.2% | % T/C on day 17 (SW1990 tumors; [5]): 47.8% | % T/C on day 20 (SW1990 tumors; [5]): 44.2% | % T/C on day 22 (SW1990 tumors; [5]): 45.3% | % T/C on day 24 (SW1990 tumors; [5]): 44.8% | % T/C on day 28 (SW1990 tumors; [5]): 38.9% | % T/C on day 0 (U87-MG tumors; PM01183 0.045 mg/kg): 98.2% | % T/C on day 2 (U87-MG tumors; PM01183 0.045 mg/kg): 101.0% | % T/C on day 4 (U87-MG tumors; PM01183 0.045 mg/kg): 80.4% | % T/C on day 7 (U87-MG tumors; PM01183 0.045 mg/kg): 83.8% | % T/C on day 9 (U87-MG tumors; PM01183 0.045 mg/kg): 78.8% | % T/C on day 11 (U87-MG tumors; PM01183 0.045 mg/kg): 77.7% | % T/C on day 14 (U87-MG tumors; PM01183 0.045 mg/kg): 76.7% | % T/C on day 16 (U87-MG tumors; PM01183 0.045 mg/kg): 82.5% | % T/C on day 0 (U87-MG tumors; PM01183 0.09 mg/kg): 97.9% | % T/C on day 2 (U87-MG tumors; PM01183 0.09 mg/kg): 99.5% | % T/C on day 4 (U87-MG tumors; PM01183 0.09 mg/kg): 74.4% | % T/C on day 7 (U87-MG tumors; PM01183 0.09 mg/kg): 85.1% | % T/C on day 9 (U87-MG tumors; PM01183 0.09 mg/kg): 69.4% | % T/C on day 11 (U87-MG tumors; PM01183 0.09 mg/kg): 71.8% | % T/C on day 14 (U87-MG tumors; PM01183 0.09 mg/kg): 74.1% | % T/C on day 16 (U87-MG tumors; PM01183 0.09 mg/kg): 73.5% | % T/C on day 0 (U87-MG tumors; PM01183 0.135 mg/kg): 98.5% | % T/C on day 2 (U87-MG tumors; PM01183 0.135 mg/kg): 90.5% | % T/C on day 4 (U87-MG tumors; PM01183 0.135 mg/kg): 61.2% | % T/C on day 7 (U87-MG tumors; PM01183 0.135 mg/kg): 71.3% | % T/C on day 9 (U87-MG tumors; PM01183 0.135 mg/kg): 67.7% | % T/C on day 11 (U87-MG tumors; PM01183 0.135 mg/kg): 65.3% | % T/C on day 14 (U87-MG tumors; PM01183 0.135 mg/kg): 64.2% | % T/C on day 16 (U87-MG tumors; PM01183 0.135 mg/kg): 63.6% | % T/C on day 0 (U87-MG tumors; PM01183 0.18 mg/kg): 99.8% | % T/C on day 2 (U87-MG tumors; PM01183 0.18 mg/kg): 95.5% | % T/C on day 4 (U87-MG tumors; PM01183 0.18 mg/kg): 64.8% | % T/C on day 7 (U87-MG tumors; PM01183 0.18 mg/kg): 63.2% | % T/C on day 9 (U87-MG tumors; PM01183 0.18 mg/kg): 52.0% | % T/C on day 11 (U87-MG tumors; PM01183 0.18 mg/kg): 44.1% | % T/C on day 14 (U87-MG tumors; PM01183 0.18 mg/kg): 38.5% | % T/C on day 16 (U87-MG tumors; PM01183 0.18 mg/kg): 37.1%
